According to ChEMBL document CHEMBL1777694, “Quinazolinedione sulfonamides: a novel class of competitive AMPA receptor antagonists with oral activity” (Bioorg Med Chem Lett, 2011):
The source made the active and inactive calls. The rule behind the calls is not given here.

What was measured:
[1] = Displacement of [3H]CNQX from AMPA receptor in rat brain homogenate; type: tissue-based
[2] = target: Glutamate NMDA receptor; assay: Displacement of [3H]MDL105519 from NMDA receptor glycine site in rat brain homogenate; type: tissue-based
[3] = species: Rattus norvegicus; assay: Inhibition of AMPA receptor in rat brain homogenate at 10 uM; type: tissue-based
[4] = target: T1, Glutamate NMDA receptor (Rattus norvegicus) (UniProt P35439+Q00959+Q00960+Q00961+Q62645+Q8VHN2+Q9R1M7); assay: Inhibition of NMDA receptor glycine site in rat brain homogenate at 10 uM; type: tissue-based
[5] = target: T1, Glutamate NMDA receptor (Rattus norvegicus); assay: Inhibition of NMDA receptor glycine site in rat brain homogenate at 100 uM; type: tissue-based
[6] = species: Rattus norvegicus; assay: Inhibition of AMPA receptor in rat brain homogenate at 100 uM; type: tissue-based
[7] = system: Mus musculus; assay: Anticonvulsant activity in po dosed OF1 mouse assessed as inhibition of electroshock-induced seizures administered 1 hr before electroshock challenge; type: functional
[8] = Dissociation constant, pKa of the compound; type: physicochemical
[9] = system: Mus musculus; assay: Anticonvulsant activity in po dosed DBA2 mouse assessed as inhibition of sound-induced seizures; type: functional, organism-based
[10] = system: Mus musculus; assay: Anticonvulsant activity in OF1 mouse assessed as inhibition of electroshock-induced seizures at 30 mg/kg, ip administered 1 hr before electroshock challenge; type: functional; conditions: route intraperitoneal
[11] = target: Glutamate receptor 2 (Homo sapiens) (UniProt P42262); assay: Binding affinity to human GluA2 by X-ray crystallography
[12] = system: Mus musculus; assay: Anticonvulsant activity in OF1 mouse assessed as inhibition of electroshock-induced seizures at 30 mg/kg, po administered 1 hr before electroshock challenge; type: functional

Chain of Glutamate receptor 2 (Homo sapiens) (P42262 whole entry): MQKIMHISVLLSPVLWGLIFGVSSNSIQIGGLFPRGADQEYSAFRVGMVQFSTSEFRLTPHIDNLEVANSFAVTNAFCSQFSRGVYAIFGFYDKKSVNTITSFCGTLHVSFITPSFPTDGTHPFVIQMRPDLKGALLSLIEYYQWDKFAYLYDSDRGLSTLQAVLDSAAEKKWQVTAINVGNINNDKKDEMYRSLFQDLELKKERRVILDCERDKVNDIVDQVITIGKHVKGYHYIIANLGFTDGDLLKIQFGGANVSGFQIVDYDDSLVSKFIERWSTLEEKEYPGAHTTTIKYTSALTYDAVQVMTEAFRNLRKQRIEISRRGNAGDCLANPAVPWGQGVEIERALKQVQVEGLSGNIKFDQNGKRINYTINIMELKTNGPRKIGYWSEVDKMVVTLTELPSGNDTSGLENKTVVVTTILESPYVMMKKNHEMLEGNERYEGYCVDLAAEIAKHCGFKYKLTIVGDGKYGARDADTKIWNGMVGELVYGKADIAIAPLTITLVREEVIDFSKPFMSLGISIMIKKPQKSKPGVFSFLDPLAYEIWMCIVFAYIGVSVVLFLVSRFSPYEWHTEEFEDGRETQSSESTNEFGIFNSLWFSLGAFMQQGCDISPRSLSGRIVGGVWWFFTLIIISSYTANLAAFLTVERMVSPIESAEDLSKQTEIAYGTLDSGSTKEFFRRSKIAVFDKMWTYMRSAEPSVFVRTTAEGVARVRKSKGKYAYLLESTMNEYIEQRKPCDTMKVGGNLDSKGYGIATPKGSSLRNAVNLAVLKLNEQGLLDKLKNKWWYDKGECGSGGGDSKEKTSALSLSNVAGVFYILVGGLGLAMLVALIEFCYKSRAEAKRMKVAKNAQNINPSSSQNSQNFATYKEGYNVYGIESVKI

Row | IC50 [1] [µM] | inhibition [4] [%] | SMILES | further results
1 | 1.9 |  | C=Cc1ccc2c(=O)n(NS(C)(=O)=O)c(=O)[nH]c2c1 | IC50 [2]: > 10 µM
2 | 9.7 | 13 | Cc1ccc2c(=O)n(NS(C)(=O)=O)c(=O)[nH]c2c1 | ED50 [7]: 9 mg/kg
3 | 2.2 | 49 | CS(=O)(=O)Nn1c(=O)[nH]c2cc(Br)ccc2c1=O | 
4 | 0.75 | 28 | CS(=O)(=O)Nn1c(=O)[nH]c2cc(C#N)ccc2c1=O | 
5 | 2.4 | 32 | CS(=O)(=O)Nn1c(=O)[nH]c2cc(Cl)ccc2c1=O | ED50 [7]: 23 mg/kg; pKa [8]: 6.9
6 | 3 |  | CCc1ccc2c(=O)n(NS(C)(=O)=O)c(=O)[nH]c2c1 | ED50 [7]: 16 mg/kg
7 | 4.9 |  | CC(C)(C)c1ccc2c(=O)n(NS(C)(=O)=O)c(=O)[nH]c2c1 | ED50 [7]: 29.5 mg/kg; IC50 [2]: > 100 µM
8 | 3.7 | 22 | COc1ccc2c(=O)n(NS(C)(=O)=O)c(=O)[nH]c2c1 | inhibition in vivo at 30 mg/kg [12]: 60%
9 | 8.2 | 17 | CS(=O)(=O)Nn1c(=O)[nH]c2cc(F)ccc2c1=O | 

More lines, now with the values behind:

Row | SMILES | IC50 [1] [µM] | inhibition [4] [%] | further results
10 | Cn1cnc(S(=O)(=O)Nn2c(=O)[nH]c3cc(Cl)ccc3c2=O)c1 | 1.6 |  | 
11 | CS(=O)(=O)Nn1c(=O)[nH]c2cc(Cl)c(-n3ccnc3)cc2c1=O | 0.52 |  | IC50 [2]: 17.2 µM
12 | CS(=O)(=O)Nn1c(=O)[nH]c2cc(C(=O)O)ccc2c1=O |  |  | inhibition [3]: 0%
13 | CS(=O)(=O)Nn1c(=O)[nH]c2cc(C3CCCC3)ccc2c1=O |  |  | inhibition [3]: 25%
14 | CS(=O)(=O)Nn1c(=O)[nH]c2cc(CCc3ccccc3)ccc2c1=O | 1.1 | 26 | 
15 | CS(=O)(=O)Nn1c(=O)[nH]c2ccc(Cl)cc2c1=O | 34 |  | inhibition [5]: 50%
16 | CN(n1c(=O)[nH]c2cc(Cl)ccc2c1=O)S(C)(=O)=O |  |  | inhibition [5]: 18%; inhibition [6]: 12%
17 | CS(=O)(=O)Nn1c(=O)[nH]c2cc(C(F)(F)F)ccc2c1=O | 0.92 | 13 | ED50 [7]: 54 mg/kg; IC50 [2]: 17.8 µM
18 | CS(=O)(=O)Nn1c(=O)[nH]c2c(Cl)cccc2c1=O | > 100 |  | inhibition [5]: 37%
19 | CS(=O)(=O)Nn1c(=O)[nH]c2cc(S(C)(=O)=O)ccc2c1=O |  |  | inhibition [3]: 42%; IC50 [2]: > 100 µM
20 | O=c1[nH]c2cc(Cl)ccc2c(=O)n1NS(=O)(=O)c1ccccc1 | 4.9 |  | IC50 [2]: 9.3 µM
21 | CS(=O)(=O)Nn1c(=O)[nH]c2cc([N+](=O)[O-])c(-n3ccnc3)cc2c1=O | 0.082 | 24 | inhibition [9]: inactive; inhibition in vivo at 30 mg/kg [10]: 40%; inhibition [7]: inactive; Activity [11]: Active
22 | CS(=O)(=O)Nn1c(=O)[nH]c2cccc(Cl)c2c1=O | 29 |  | inhibition [5]: 34%
23 | CS(=O)(=O)Nn1c(=O)[nH]c2cc([N+](=O)[O-])ccc2c1=O | 1.2 | 16 | 
24 | Cn1c(=O)n(NS(C)(=O)=O)c(=O)c2ccc(Cl)cc21 |  |  | inhibition [5]: 36%; inhibition [6]: 45%
25 | CS(=O)(=O)Nn1c(=O)[nH]c2cc(-c3ccccc3)ccc2c1=O |  |  | inhibition [5]: 36%; inhibition [3]: 36%
26 | CS(=O)(=O)Nn1c(=O)[nH]c2ccccc2c1=O | 57 |  | inhibition [5]: 48%
27 | O=c1[nH]c2cc(Cl)ccc2c(=O)n1NS(=O)(=O)Cc1ccccc1 | 2.9 |  | IC50 [2]: 0.21 µM
28 | CCS(=O)(=O)Nn1c(=O)[nH]c2cc(Cl)ccc2c1=O | 2.3 |  | IC50 [2]: 35 µM
